Experiment [1] concerns the target angiotensin-converting enzyme (Homo sapiens, UniProt P12821). Kind of experiment: Inhibition of angiotensin-converting enzyme (conversion of angiotensin I into angiotensin II), I50 determination. In kind it is biochemical. Conditions: for IC50: 0.3 mM angiotensin I, 100 mM potassium phosphate buffer pH 7.5, 30 mM NaCl, 37°, read-out: I50 (concentration of peptide producing a 50% inhibition of angiotensin-converting enzyme) (converted). The protocol: For determination of I50 values (concentration of peptide expressed in micrograms/ml. producing a 50% inhibition of angiotensin-converting enzyme), varying concentrations of the peptide of Example 19 are added to 13 × 100 mm. assay tubes containing a final volume of 0.25 ml. containing 100 mM. potassium phosphate buffer, pH 7.5, 30 mM. NaCl, and 0.3 mM. angiotensin I. Enzymatic reactions are initiated by addition of enzyme and incubation is carried out at 37°. The concentration of the peptide of Example 19 of the present invention which inhibits conversion of 50% of angiotensin I into angiotensin II is found to be 7 μg./ml as opposed to an I50 (μg/ml) of 0.9 for the parent peptide Pyr-Trp-Pro-Arg-Pro-Gln-Ile-Pro-Pro.

Experiment [2] deals with angiotensin I induced pressor response. Kind of experiment: Inhibition of angiotensin I induced pressor response in anesthetized rats. Format: in vivo. Particulars: intravenous; atropinized anesthetized male rats infused with pentolinium; 0.10 μg/kg angiotensin I.

Sequence of angiotensin-converting enzyme (P12821 30-1306, species assumed): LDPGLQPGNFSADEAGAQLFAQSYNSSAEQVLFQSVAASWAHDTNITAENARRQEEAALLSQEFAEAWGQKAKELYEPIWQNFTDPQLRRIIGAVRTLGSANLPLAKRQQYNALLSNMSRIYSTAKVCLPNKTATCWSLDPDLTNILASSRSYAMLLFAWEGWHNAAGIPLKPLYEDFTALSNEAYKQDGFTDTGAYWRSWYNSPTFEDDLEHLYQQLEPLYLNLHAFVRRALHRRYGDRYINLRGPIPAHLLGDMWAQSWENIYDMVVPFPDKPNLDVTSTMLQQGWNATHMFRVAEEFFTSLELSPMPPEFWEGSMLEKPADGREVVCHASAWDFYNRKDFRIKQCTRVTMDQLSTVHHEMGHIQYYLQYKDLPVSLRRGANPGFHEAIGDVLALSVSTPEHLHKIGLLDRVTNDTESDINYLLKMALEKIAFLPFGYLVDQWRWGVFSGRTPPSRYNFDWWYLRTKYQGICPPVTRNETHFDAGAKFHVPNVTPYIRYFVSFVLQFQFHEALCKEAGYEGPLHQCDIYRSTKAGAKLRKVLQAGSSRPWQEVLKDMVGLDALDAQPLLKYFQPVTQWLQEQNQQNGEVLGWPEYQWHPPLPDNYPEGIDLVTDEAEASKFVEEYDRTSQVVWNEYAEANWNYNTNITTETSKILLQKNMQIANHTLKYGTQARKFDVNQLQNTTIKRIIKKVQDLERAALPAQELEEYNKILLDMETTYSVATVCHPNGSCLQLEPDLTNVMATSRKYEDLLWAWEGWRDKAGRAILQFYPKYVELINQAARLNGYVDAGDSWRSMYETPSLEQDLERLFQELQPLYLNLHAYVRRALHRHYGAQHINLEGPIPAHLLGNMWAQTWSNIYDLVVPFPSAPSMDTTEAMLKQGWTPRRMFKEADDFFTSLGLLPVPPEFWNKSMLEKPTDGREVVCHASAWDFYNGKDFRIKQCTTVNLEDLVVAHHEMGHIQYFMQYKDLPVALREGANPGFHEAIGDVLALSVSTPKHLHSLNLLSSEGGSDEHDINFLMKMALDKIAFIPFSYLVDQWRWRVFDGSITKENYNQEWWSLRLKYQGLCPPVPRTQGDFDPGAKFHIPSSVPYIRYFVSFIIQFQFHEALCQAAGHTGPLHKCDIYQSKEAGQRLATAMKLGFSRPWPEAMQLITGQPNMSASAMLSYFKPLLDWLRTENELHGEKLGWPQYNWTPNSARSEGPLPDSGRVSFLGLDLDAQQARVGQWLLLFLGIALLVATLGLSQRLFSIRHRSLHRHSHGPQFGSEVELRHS

For `CC[C@H](C)[C@H](NC(=O)[C@H](CCC(N)=O)NC(=O)[C@@H]1CCCN1C(=O)[C@H](CCCNC(=N)N)NC(=O)[C@@H]1CCCN1C(=O)[C@H](Cc1c[nH]c2ccccc12)NC(=O)[C@@H]1CCC(=O)N1)C(=O)N1CCC[C@H]1C(=O)N1CCC[C@H]1C(=O)O` [Pyr-Trp-Pro-Arg-Pro-Gln-Ile-Pro-Pro, Pyroglutamyl-tryptophyl-prolyl-arginyl-prolyl-glutaminyl-isoleucyl-prolyl-proline, reference compound], the IC50 in experiment [1] was 0.817 µM.
Regarding `CC[C@H](C)[C@H](NC(=O)[C@H](CCC(N)=O)NC(=O)[C@@H]1CCCN1C(=O)[C@H](CCCNC(=N)N)NC(=O)[C@@H]1CCCN1C(=O)[C@H](Cc1c[nH]c2ccccc12)NC(=O)[C@@H]1CCC(=O)N1)C(=O)N1CCC[C@H]1C(=O)N1CCC[C@H]1C(=O)OC` [Example 19, Pyroglutamyl-tryptophyl-prolyl-arginyl-prolyl-glutaminyl-isoleucyl-prolyl-proline, methyl ester], the IC50 in experiment [1] was 6.28 µM. Also, in experiment [1] (in vitro), the “in vitro potency in inhibiting conversion of angiotensin I into angiotensin II, compared with parent control peptide” value is “substantially less potent than the parent control peptide”. Further, the “in vivo activity (degree of inhibition of angiotensin I induced pressor response)” value in experiment [2] is reported as “roughly equivalent to that of the parent Control peptide”.

Values taken from US3973006A, “Peptide enzyme inhibitors of angiotensin I” (E. R. Squibb & Sons, Inc., priority 1975, dated 1976).
